Key:
Topoisomerase I = molecular target: T1, Topoisomerase I (Homo sapiens, UniProt P11387); assay: Topoisomerase I activity; assay type: biochemical
T1 sequence (P11387 1-765): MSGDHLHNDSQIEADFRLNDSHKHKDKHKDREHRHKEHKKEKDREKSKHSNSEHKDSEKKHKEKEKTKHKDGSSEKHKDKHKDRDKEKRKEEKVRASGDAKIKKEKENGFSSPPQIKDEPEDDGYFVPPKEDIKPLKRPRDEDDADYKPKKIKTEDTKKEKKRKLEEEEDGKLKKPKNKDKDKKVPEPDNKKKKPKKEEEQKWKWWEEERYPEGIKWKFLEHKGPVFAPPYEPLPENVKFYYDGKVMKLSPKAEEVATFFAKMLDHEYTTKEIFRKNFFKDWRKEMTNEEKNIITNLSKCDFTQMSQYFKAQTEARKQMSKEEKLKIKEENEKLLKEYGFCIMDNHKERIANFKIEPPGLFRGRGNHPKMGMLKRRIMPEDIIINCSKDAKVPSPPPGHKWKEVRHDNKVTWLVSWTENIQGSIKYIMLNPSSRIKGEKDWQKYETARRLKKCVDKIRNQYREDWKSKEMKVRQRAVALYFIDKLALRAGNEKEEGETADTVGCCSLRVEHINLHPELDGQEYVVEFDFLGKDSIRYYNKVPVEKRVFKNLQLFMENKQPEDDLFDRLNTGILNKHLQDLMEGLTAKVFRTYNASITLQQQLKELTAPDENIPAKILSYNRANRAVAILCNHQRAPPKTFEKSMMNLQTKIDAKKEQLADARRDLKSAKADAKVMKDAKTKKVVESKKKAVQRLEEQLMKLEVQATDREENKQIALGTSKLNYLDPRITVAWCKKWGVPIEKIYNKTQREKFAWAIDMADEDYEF
Text: Topoisomerase I introduces a nick in the DNA backbone allowing the rotation of one DNA strand around the second DNA strand. The DNA break is extremely transient and is re-ligated almost immediately. When an inhibitor of Topoisomerase I is present, it binds to the Topoisomerase I-nicked DNA complex or to the Topoisomerase I itself and this prevents the re-ligation of the nicked strand or the initial nick and rotation, respectively. Topoisomerase I and II activities are required for Epstein-Barr Virus replication.

[1] = test system: BS-24-1: mouse lymphoma cell; assay: Cell death / anti-proliferative assay (MTT/XTT) in BS-24-1 cells; assay type: cell-based; settings: BS-24-1, 4.8e^−4 μM, 2 h
Experimental: (§1) The following cell lines were used in this study: (1) BS-24-1: mouse lymphoma cell; (2) MoFir: Epstein-Barr virus transformed human B lymphocytes generated in the laboratory by transformation of human B cell from an anonymous donor (see below); (3) FB: normal human skin fibroblasts.
(§2) Cell death was assessed by incubation of cells with tetrazolium salt XTT. The production of formazan can be monitored using an ELISA reader at a wavelength of 450 nm. Cytotoxicity in compound-treated culture was expressed as follows: % survival=100×(absorbance of compound-treated cell/absorbance of ethanol-treated cells).
(§3) In order to investigate whether C. gikadensis extracts had anti-proliferative effects against tumor cell lines, an MTT (3-(4,5-Dimethylthiazol-2-yl)-2,5-diphenyltetrazolium bromide) assay was used. The effect of this extract was assessed in mouse (BS-24-1) and human (MoFir) cell lines using ethanol (EtOH)-based stem extracts. The concentration of cells was 1.0×10^6/mL.

BS-24-1 cells = assay: DNA ladder analysis (apoptosis), BS-24-1 cells; assay type: cell-based, mouse; settings: BS-24-1, 2-h treatment
Experimental: FIG. 6. is a gel micrograph showing the DNA ladder effect (induction of apoptosis) of different compositions. BS-24-1 cells (1,000,000/mL) were incubated with C. gileadensis stem and leaf extracts (6 μl/mL) for 17 h. DNA was separated and analyzed on agarose gel. Lanes 1-7 and 11, H2O based stem extract. Lanes 8-10, H2O based leaf extract. Lanes 12-18 and 22, ethanol based stem extract. Lanes 19-21, ethanol based leaf extract. Lanes 23 and 24 Control cells treated with ethanol (0.05%) and water.
FIG. 8. is a gel micrograph showing the DNA ladder effect (induction of apoptosis) of different compositions. BS-24-1 cells were incubated with C. gileadensis essential oil for 24 h. DNA was separated and analyzed on agarose gel. Lane 1, untreated cells with ethanol (0.05%) alone. Lane 2, cells incubation with 0.625 μl/mL essential oil. Lane 3, cells incubation with 1.25 μl/mL essential oil.
FIG. 9. is a gel micrograph showing the DNA ladder effect (induction of apoptosis) of β-Caryophyllene. Fragmentation of DNA in the presence of β-Caryophyllene. BS-24-1 cells were incubated in the presence of β-Caryophyllene in three different concentrations and two incubation time Lane 1, untreated cells with ethanol (0.05%) alone. Lane 2, cells incubated for 24 h with […] Lane 3, cells incubated for 2 h with 9.6 μM β-caryophyllene. […]

caspase-3 [2] = assay: Caspase-3 cellular activity assay, BS-24-1 cells; assay type: cell-based, mouse
caspase-3 [3] = assay: Caspase-3 cellular activity assay, MoFir cells; assay type: cell-based, human
Experimental: FIG. 4. is a bar graph showing the apoptogenic effects of β-Caryophyllene on two tumor cell lines. Enzymatic activity of different cell lines incubated with β-Caryophyllene (2.4e^−4 μM) for 2 h. X axis represents the time of the enzymatic reaction in vitro in minutes.
FIG. 5. is a bar graph showing the apoptogenic effects of β-Caryophyllene on two tumor cell lines. […] Measurements were taken following 1020 min of enzymatic reaction in vitro. Pre-incubation with caspase-3 inhibitor (DEVD-CHO) eliminated any development of caspase-3 activity.
Caspase-3 cellular activity assay was carried out according to the manufacturer's instructions. For measuring specific inhibition by Ac-DEVD-CHO, cell extracts were pre-incubated with the inhibitor (0.05 μM) for 10 minutes before the addition of the substrate. […] Cellular extracts were prepared and then caspase-3 activity was measured.

[4] = test system: MoFir: Epstein-Barr virus transformed human B lymphocytes; assay: Cell death / anti-proliferative assay (MTT/XTT) in MoFir cells; assay type: cell-based; settings: 4.8e^−4 μM, 2 h
Experimental: as §1
To establish the MoFir cells, B cells from whole blood were prepared by Ficoll -Hypaque density gradient centrifugation. The cells were infected with the B95-8 strain of Epstein-Barr virus. RPMI medium (Biological Industries Beit Haemek) was used for cell culture. The EBV B lymphocyte cell line was maintained in RPMI supplemented with 10% FBS, 100 U/mL penicillin and […] streptomycin. The culture was maintained at 37° C. in 5% CO2 atmosphere. […]
as §2
as §3, with “The concentration of cells was 1.0×10^6/mL.” left out

Epstein-Barr virus = assay: In vivo EBV animal model (humanized mouse or rabbit); settings: 5.0, 10 or 20 mg/kg, 4 consecutive days, i.p. or within food or drinking water
Experimental: Studies evaluating the effect of C. gileadensis extract and β-caryophyllene in an in vivo animal model are performed using the humanized mouse animal model described in Sato et al., 2011 (“A novel animal model of Epstein-Barr virus-associated hemophagocytic lymphohistiocytosis in humanized mice” Blood, 2011 May 26; 117(21):5663-73, incorporated herein by reference in its entirety) or using the rabbit model described in Takashima, 2008 (“A new animal model for primary and persistent Epstein-Barr virus infection: human EBV-infected rabbit characteristics determined using sequential imaging and pathological analysis” J Med. Virol. 2008 March; 80(3):455-66, incorporated herein by reference in its entirety). C. gileadensis extract and β-caryophyllene are supplied in balanced salt solution containing 12% Tween 80 (pH 7.4) and diluted immediately before use in appropriate concentrations. Doses of 5.0, 10 or 20 mg/kg are administered for 4 consecutive days to control and EBV groups (eight animals/group) by i.p. injection of 0.1 ml per mouse or within the food or drinking water. Both C. gileadensis extract and β-caryophyllene are found to prevent EBV-induced death, viremia, leukocytosis, IFN-γ cytokinenemia, normocytic anemia, and thrombocytopenia, and increase survival time

[5] = test system: EBV-producing B95-8 cells; assay: Survival of EBV-producing B95-8 cells; assay type: cell-based; settings: increasing concentration
Text: Epstein-Barr virus strain B95-8 can immortalize human B lymphocytes. B95-8 is a cell line that produces Epstein-Barr virus (EBV).

[6] = molecular target: cannabinoid receptor type-1 (CB 1) (Homo sapiens, UniProt P21554); settings: background statement; cited from earlier work
Chain of cannabinoid receptor type-1 (CB 1) (P21554 whole entry, species assumed): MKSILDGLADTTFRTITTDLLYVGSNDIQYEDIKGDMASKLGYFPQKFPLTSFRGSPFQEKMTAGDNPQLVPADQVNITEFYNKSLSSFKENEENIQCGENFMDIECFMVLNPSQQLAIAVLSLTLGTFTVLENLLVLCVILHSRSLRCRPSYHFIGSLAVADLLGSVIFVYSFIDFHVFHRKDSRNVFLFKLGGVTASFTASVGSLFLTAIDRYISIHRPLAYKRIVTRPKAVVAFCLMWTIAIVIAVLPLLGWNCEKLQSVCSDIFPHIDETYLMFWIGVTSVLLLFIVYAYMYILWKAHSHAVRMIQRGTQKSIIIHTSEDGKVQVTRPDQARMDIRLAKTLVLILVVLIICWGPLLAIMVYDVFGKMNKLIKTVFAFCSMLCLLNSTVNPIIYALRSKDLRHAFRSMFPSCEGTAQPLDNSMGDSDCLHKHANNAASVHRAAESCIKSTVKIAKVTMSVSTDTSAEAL

[7] = molecular target: cannabinoid receptor type-2 (Homo sapiens, UniProt P34972); settings: background statement; cited from earlier work
Chain of cannabinoid receptor type-2 (P34972 whole entry): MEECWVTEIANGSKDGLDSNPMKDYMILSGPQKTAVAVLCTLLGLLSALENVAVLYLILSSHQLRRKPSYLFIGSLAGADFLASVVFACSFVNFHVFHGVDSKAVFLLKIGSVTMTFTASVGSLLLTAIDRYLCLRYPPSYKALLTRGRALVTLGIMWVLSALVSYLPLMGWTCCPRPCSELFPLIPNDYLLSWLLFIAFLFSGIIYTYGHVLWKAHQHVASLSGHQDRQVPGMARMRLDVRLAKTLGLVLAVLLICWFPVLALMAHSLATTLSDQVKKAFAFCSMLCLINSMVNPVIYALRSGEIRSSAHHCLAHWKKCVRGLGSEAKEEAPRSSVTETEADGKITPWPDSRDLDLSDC

[8] = test system: FB: normal human skin fibroblasts; assay: DNA ladder analysis (apoptosis), normal FB cells; assay type: cell-based; settings: summary statements
Experimental: FIG. 7. is a gel micrograph showing the DNA ladder effect (induction of apoptosis) of different compositions. MoFir and normal FB cells were incubated with C. gileadensis extract (2.5 μl/mL) for 24 h. DNA was separated and analyzed on agarose gel. Lane 1 and 2, ethanol based stem extract Lane 3-5, ethanol based leaf extract. Lane 6 control cells treated with ethanol (0.05%).
DNA ladder analysis was performed as previously described Ofir R. et al., (1999) (Ofir R, Zhang L-, Adams J M. Interference with gene expression induces rapid apoptosisin p53-null T lymphoma cells. Cell Death and Differentiation 1999; 6: 1216-1221).

In the case of `C=C1CC/C=C(\C)CC[C@@H]2[C@@H]1CC2(C)C` [Beta-caryophyllene, trans-(1R,9S)-8-Methylene-4,11,11-trimethylbicyclo[7.2.0]undec-4-ene], the “activity of Topoisomerase I” value (Topoisomerase I) is reported as “inhibits”, the cell killing [1] is reported as 85-90% and the “DNA ladder (DNA fragmentation)” value (BS-24-1 cells) is reported as “repeated”. The “enzymatic activity of caspase-3” value (caspase-3 [2]; BS-24-1, 2.4e^−4 μM, 4 h incubation) was “activation of the enzymatic activity of caspase-3”, the “induction of caspase-3 enzymatic activity compared to reference compounds STS and citral” value (caspase-3 [2]; data not shown, cell line not stated) was “stronger than both” and the “enzymatic activity of caspase-3” value (caspase-3 [3]; 2.4e^−4 μM) was “activation of the enzymatic activity of caspase-3”. The cell killing [4] was 85-90%, the “EBV-induced death, viremia, leukocytosis, IFN-γ cytokinenemia, normocytic anemia, and thrombocytopenia” value (Epstein-Barr virus) was “prevent” and the survival time (Epstein-Barr virus) was “increase”. For the same compound, the “survival of EBV-producing B95-8 cells” value [5] was “decreases the survival”, the “binding to cannabinoid receptor type-1 (CB 1)” value [6] was “does not bind” and the “binding to cannabinoid receptor type-2” value [7] was “selectively bind”. For the same compound, the “apoptosis induction in normal cells (FB)” value [8] was “not in normal cells”.
In the case of Ac-DEVD-CHO [reference compound], the “beta-caryophyllene induced increase of caspase-3 activity after inhibitor pretreatment” value (caspase-3 [2]; BS-24-1, pretreatment with inhibitor (0.05 μM, 10 minutes)) is reported as “blocked” and the “beta-caryophyllene induced increase of caspase-3 activity after inhibitor pretreatment” value (caspase-3 [3]; pretreatment with inhibitor (0.05 μM, 10 minutes)) is reported as “blocked”.
